Data from US20260226068A1, “IMIDAZOTRIAZINE IL-17A MODULATORS AND USES THEREOF” (DICE ALPHA, INC., priority 2023, published 2026).

Legend:
[1] = molecular target: T1, IL-17A/F (Homo sapiens, UniProt Q16552+Q96PD4); assay: IL-17A/F HEK-Blue cell assay (SEAP reporter); assay type: cell-based; details: HEK-Blue IL-17A reporter cells, IL17A/F 5 ng/mL, 20 hours, SEAP read at A630; read-out: HEK-Blue IL17AF (IC50 for IL-17A/F inhibition)
T1 construct: purchased R&D Systems
T1 sequence (Q16552 24-155): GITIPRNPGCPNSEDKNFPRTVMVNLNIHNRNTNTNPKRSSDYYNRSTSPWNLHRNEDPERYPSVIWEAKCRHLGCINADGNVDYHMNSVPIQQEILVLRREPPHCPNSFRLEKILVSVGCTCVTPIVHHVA
T1 sequence (Q96PD4 31-163): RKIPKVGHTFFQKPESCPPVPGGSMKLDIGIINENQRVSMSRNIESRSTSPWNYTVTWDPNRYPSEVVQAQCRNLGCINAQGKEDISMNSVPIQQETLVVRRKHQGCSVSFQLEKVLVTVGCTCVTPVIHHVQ

[2] = molecular target: T2, IL-17A/A (Homo sapiens, UniProt Q16552); assay: IL-17A/A HEK-Blue cell assay (SEAP reporter); assay type: cell-based; details: HEK-Blue IL-17A reporter cells, IL17A/A 5 ng/mL, 20 hours, SEAP read at A630; read-out: HEK-Blue IL17AA (IC50 for IL-17A/A inhibition)
T2 construct: purchased Genscript Z03228
T2 sequence (Q16552 24-155): T1 sequence (Q16552 24-155)

| IC50 [1] | IC50 [2] | SMILES |
| --- | --- | --- |
| 100 to 1000 nM | < 100 nM | CCn1nccc1C(=O)N[C@H](c1cn2nc(C[C@H]3C[C@@H](C(F)(F)F)CNC3=O)c(N3CCN4CCC[C@@H]4C3)nc2n1)C1CCC(F)(F)CC1 [Compound 368, N—((S)-(4,4-difluorocyclohexyl)(3-((R)-hexahydropyrrolo[1,2-a]pyrazin-2(1H)-yl)-2-(((3R,5R)-2-oxo-5-(trifluoromethyl)piperidin-3-yl)methyl)imidazo[1,2-b][1,2,4]triazin-6-yl)methyl)-1-ethyl-1H-pyrazole-5-carboxamide] |
| > 1000 nM | 100 to 1000 nM | CCn1nccc1C(=O)N[C@H](c1cn2nc(CN3C[C@H](C(F)(F)F)CNC3=O)c(C3CCOCC3)nc2n1)C1CCC(F)(F)CC1 [Compound 437] |
| > 1000 nM | < 100 nM | CCn1nccc1C(=O)N[C@H](c1cn2nc(C[C@H]3C[C@@H](C(F)(F)F)CNC3=O)cnc2n1)[C@H]1CCCC(F)(F)C1 [Compound 30, N—((S)—((S)-3,3-difluorocyclohexyl)(2-(((3R,5R)-2-oxo-5-(trifluoromethyl)piperidin-3-yl)methyl)imidazo[1,2-b][1,2,4]triazin-6-yl)methyl)-1-ethyl-1H-pyrazole-5-carboxamide] |
| 100 to 1000 nM | < 100 nM | CCn1nccc1C(=O)N[C@H](c1cn2nc(C[C@H]3C[C@H](C(F)(F)F)CNC3=O)c(N3CCO[C@@H](C)C3)nc2n1)[C@@H]1CCCC(F)(F)C1 [Compound 306, N—((S)—((R)-3,3-difluorocyclohexyl)(3-((S)-2-methylmorpholino)-2-(((3R,5S)-2-oxo-5-(trifluoromethyl)piperidin-3-yl)methyl)imidazo[1,2-b][1,2,4]triazin-6-yl)methyl)-1-ethyl-1H-pyrazole-5-carboxamide] |
| < 100 nM | < 100 nM | CCn1nccc1C(=O)N[C@H](c1cn2nc(C[C@H]3C[C@H](C(F)(F)F)CNC3=O)c(N3CCO[C@H](C)C3)nc2n1)[C@@H]1CCCC(F)(F)C1 [Compound 305, N—((S)—((R)-3,3-difluorocyclohexyl)(3-((R)-2-methylmorpholino)-2-(((3R,5S)-2-oxo-5-(trifluoromethyl)piperidin-3-yl)methyl)imidazo[1,2-b][1,2,4]triazin-6-yl)methyl)-1-ethyl-1H-pyrazole-5-carboxamide] |
| < 100 nM | < 100 nM | CCn1nccc1C(=O)N[C@H](c1cn2nc(C[C@H]3C[C@@H](C(F)(F)F)CNC3=O)c(N3CCO[C@H](C)C3)nc2n1)C1CCC(F)(F)CC1 [Compound 282, N—((S)-(4,4-difluorocyclohexyl)(3-((R)-2-methylmorpholino)-2-(((3R,5R)-2-oxo-5-(trifluoromethyl)piperidin-3-yl)methyl)imidazo[1,2-b][1,2,4]triazin-6-yl)methyl)-1-ethyl-1H-pyrazole-5-carboxamide] |
| < 100 nM | < 100 nM | Cn1nccc1C(=O)N[C@H](c1cn2nc(C[C@H]3C[C@@H](C(F)(F)F)CNC3=O)c(C3CCOCC3)nc2n1)[C@H]1CC[C@H](C)CC1 [Compound 218, 1-methyl-N—((S)-((1r,4S)-4-methylcyclohexyl)(2-(((3R,5R)-2-oxo-5-(trifluoromethyl)piperidin-3-yl)methyl)-3-(tetrahydro-2H-pyran-4-yl)imidazo[1,2-b][1,2,4]triazin-6-yl)methyl)-1H-pyrazole-5-carboxamide] |
| 100 to 1000 nM | < 100 nM | O=C(N[C@H](c1cn2nc(C[C@H]3C[C@@H](C(F)(F)F)CNC3=O)c(C3CCOCC3)nc2n1)C1CCC(F)(F)CC1)c1conc1C(F)(F)F [Compound 191, N-((1S)-(4,4-difluorocyclohexyl)(2-(((3R,5R)-2-oxo-5-(trifluoromethyl)piperidin-3-yl)methyl)-3-(tetrahydro-2H-pyran-4-yl)imidazo[1,2-b][1,2,4]triazin-6-yl)methyl)-3-(trifluoromethyl)isoxazole-4-carboxamide] |
| > 1000 nM | < 100 nM | CCn1nccc1C(=O)N[C@H](c1cn2nc(C[C@@H]3CC(F)(F)CNC3=O)c(C3CCOCC3)nc2n1)C1CCC(F)(F)CC1 [Compound 222] |
| 100 to 1000 nM | < 100 nM | CCn1nccc1C(=O)N[C@H](c1cn2nc(C[C@H]3C[C@@H](C(F)(F)F)CNC3=O)c(C3CCS(=O)(=O)CC3)nc2n1)C1CCC(F)(F)CC1 [Compound 234, N—((S)-(4,4-difluorocyclohexyl)(3-(1,1-dioxidotetrahydro-2H-thiopyran-4-yl)-2-(((3R,5R)-2-oxo-5-(trifluoromethyl)piperidin-3-yl)methyl)imidazo[1,2-b][1,2,4]triazin-6-yl)methyl)-1-ethyl-1H-pyrazole-5-carboxamide] |
| > 1000 nM | < 100 nM | CCn1nccc1C(=O)N[C@H](c1cn2nc(C[C@H]3C[C@@H](C(F)(F)F)CNC3=O)cnc2n1)C(C1CC1)C1CC1 [Compound 29, N—((S)-2,2-dicyclopropyl-1-(2-(((3R,5R)-2-oxo-5-(trifluoromethyl)piperidin-3-yl)methyl)imidazo[1,2-b][1,2,4]triazin-6-yl)ethyl)-1-ethyl-1H-pyrazole-5-carboxamide] |
| > 1000 nM | 100 to 1000 nM | Cc1nccnc1C(=O)N[C@H](c1cn2nc(C[C@H]3C[C@@H](C(F)(F)F)CNC3=O)c(C3CCOCC3)nc2n1)C1CCC(F)(F)CC1 [Compound 246, N—((S)-(4,4-difluorocyclohexyl)(2-(((3R,5R)-2-oxo-5-(trifluoromethyl)piperidin-3-yl)methyl)-3-(tetrahydro-2H-pyran-4-yl)imidazo[1,2-b][1,2,4]triazin-6-yl)methyl)-3-methylpyrazine-2-carboxamide] |
| > 1000 nM | < 100 nM | CCn1nccc1C(=O)N[C@@H](COC(C)(C)C(F)(F)F)c1cn2nc(C[C@H]3C[C@@H](C(F)(F)F)CNC3=O)c(C3CCOCC3)nc2n1 (single isomer, unassigned) [Compound 159] |
| < 100 nM | < 100 nM | CCn1nccc1C(=O)N[C@H](c1cn2nc(CC3C[C@@H](C(F)(F)F)CNC3=O)c(N3C[C@@H]4C[C@H]3CO4)nc2n1)[C@H]1CC[C@H](C)CC1 (single isomer, unassigned) [Compound 108] |
| > 1000 nM | < 100 nM | CCn1nccc1C(=O)N[C@H](c1cn2nc(C[C@H]3C[C@@H](C(F)(F)F)CNC3=O)c(CN3CCC4(CC3)CC4)nc2n1)C1CCC(F)(F)CC1 [Compound 346, N—((S)-(3-((6-azaspiro[2.5]octan-6-yl)methyl)-2-(((3R,5R)-2-oxo-5-(trifluoromethyl)piperidin-3-yl)methyl)imidazo[1,2-b][1,2,4]triazin-6-yl)(4,4-difluorocyclohexyl)methyl)-1-ethyl-1H-pyrazole-5-carboxamide] |
| 100 to 1000 nM | < 100 nM | CCn1nccc1C(=O)N[C@H](c1cn2nc(CC3C[C@@H](C(F)(F)F)CNC3=O)c(N3CCOCC3)nc2n1)[C@@H]1CCCC(F)(F)C1 (single isomer, unassigned) [Compound 94] |
| > 1000 nM | 100 to 1000 nM | CCn1nccc1C(=O)N[C@H](c1cn2nc(C[C@H]3C[C@@H](C(F)(F)F)CNC3=O)c(CN3CCN(C)CC3)nc2n1)C1CCC(F)(F)CC1 [Compound 412, N—((S)-(4,4-difluorocyclohexyl)(3-((4-methylpiperazin-1-yl)methyl)-2-(((3R,5R)-2-oxo-5-(trifluoromethyl)piperidin-3-yl)methyl)imidazo[1,2-b][1,2,4]triazin-6-yl)methyl)-1-ethyl-1H-pyrazole-5-carboxamide] |
| 100 to 1000 nM | < 100 nM | CCn1nccc1C(=O)N[C@H](c1cn2nc(CC3C[C@H](C(F)(F)F)CNC3=O)c(N3CCOCC3)nc2n1)C1CCC(F)(F)CC1 (single isomer, unassigned) [Compound 54] |
| > 1000 nM | < 100 nM | CCn1nccc1C(=O)N[C@H](c1cn2nc(C[C@H]3C[C@@H](C(F)(F)F)CNC3=O)c(C3CCCN(CCOC)C3)nc2n1)C1CCC(F)(F)CC1 (stereo partly drawn) [Compound 226, N-((1S)-(4,4-difluorocyclohexyl)(3-(1-(2-methoxyethyl)piperidin-3-yl)-2-(((3R,5R)-2-oxo-5-(trifluoromethyl)piperidin-3-yl)methyl)imidazo[1,2-b][1,2,4]triazin-6-yl)methyl)-1-ethyl-1H-pyrazole-5-carboxamide] |
| 100 to 1000 nM | < 100 nM | CCn1nccc1C(=O)N[C@H](c1cn2nc(C[C@H]3C[C@@H](C(F)(F)F)CNC3=O)c(CCN3CCOCC3)nc2n1)C1CCC(F)(F)CC1 [Compound 359] |
| 100 to 1000 nM | < 100 nM | CCn1nccc1C(=O)N[C@H](c1cn2nc(C[C@H]3C[C@@H](C(F)(F)F)CNC3=O)c(C(C)C(F)(F)F)nc2n1)C1CCC(F)(F)CC1 (single isomer, unassigned) [Compound 174] |
| > 1000 nM | 100 to 1000 nM | O=C(N[C@H](c1cn2nc(C[C@H]3C[C@@H](C(F)(F)F)CNC3=O)cnc2n1)C1CCC(F)(F)CC1)c1conc1CCF [Compound 40] |
| > 1000 nM | < 100 nM | CCc1nonc1C(=O)N[C@H](c1cn2nc(C[C@H]3C[C@@H](C(F)(F)F)CNC3=O)c(N3CCN(CCOC)CC3)nc2n1)C1CCC(F)(F)CC1 [Compound 421, N—((S)-(4,4-difluorocyclohexyl)(3-(4-(2-methoxyethyl)piperazin-1-yl)-2-(((3R,5R)-2-oxo-5-(trifluoromethyl)piperidin-3-yl)methyl)imidazo[1,2-b][1,2,4]triazin-6-yl)methyl)-4-ethyl-1,2,5-oxadiazole-3-carboxamide] |
